The results in this text go back to PubChem BioAssay (NCI).

Test systems include SR leukemia; DU-145 prostate; NCI-H226 lung; ACHN renal; U251 CNS; M14 melanoma; RXF 393 renal; BT-549 breast; UACC-62 melanoma; CAKI-1 renal.
Holding throughout (assay): NCI tumour cell line growth inhibition, 48 h

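All cell lines were grown in 96-well plates and treated with compound for 48 hours. Here, GI50 denotes the concentration required for 50% inhibition of growth. TGI: concentration producing complete growth inhibition.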

As for `Cn1ccc(S(=O)(=O)N2CCC[C@H](Nc3nccc(-c4c(-c5cccc(O)c5)nc5occn45)n3)C2)n1`, the GI50 was 8.19 µM with SR leukemia; 16.6 µM in the assay on DU-145 prostate; 11.5 µM in the assay with NCI-H226 lung; 7.19 µM in the assay on ACHN renal; 22.3 µM in the assay with U251 CNS; 0.112 µM with M14 melanoma. Moreover, the GI50 in the assay with RXF 393 renal is 4.47 µM; in the assay on BT-549 breast it was 12.7 µM; in the assay with UACC-62 melanoma, 0.0643 µM; in the assay with CAKI-1 renal, 18 µM. Moreover, the TGI in the assay with SR leukemia was 46.2 µM; in the assay with DU-145 prostate, over 100 µM; in the assay on NCI-H226 lung it was over 84.8 µM; in the assay with ACHN renal it was over 100 µM; in the assay on U251 CNS, over 100 µM; in the assay with M14 melanoma, 13.9 µM. For the same compound, the TGI in the assay with RXF 393 renal amounted to 18.4 µM; in the assay on BT-549 breast it was 52.9 µM; in the assay with UACC-62 melanoma it was 3.4 µM; in the assay on CAKI-1 renal, 78.1 µM.

On to `Nc1nc(N)c2c(Cl)c(CNc3ccc(Cl)c(Cl)c3)ccc2n1`, for which the TGI in the assay on SR leukemia worked out at 7.36 µM; in the assay with DU-145 prostate it was 15.7 µM; in the assay on NCI-H226 lung, 33.7 µM; in the assay on ACHN renal, 14 µM; in the assay with U251 CNS, 11.2 µM; in the assay with M14 melanoma, 3.87 µM. Further, the TGI is 7.26 µM with RXF 393 renal, 19.1 µM with BT-549 breast, 13.7 µM in the assay on UACC-62 melanoma and 16 µM in the assay on CAKI-1 renal.

`CCN(CC)CCOc1ccc2c(-c3ccccc3)c(-c3ccc(OC)cc3)c(=O)oc2c1`: the GI50 was 1.62 µM in the assay with SR leukemia; 10.5 µM in the assay with DU-145 prostate; 13.6 µM in the assay with NCI-H226 lung; 6.82 µM with ACHN renal; 4.51 µM in the assay on U251 CNS; 1.94 µM in the assay on M14 melanoma. For the same compound, the GI50 is 3.23 µM in the assay with RXF 393 renal, 6.16 µM in the assay with BT-549 breast, 3.82 µM in the assay with UACC-62 melanoma and 3.07 µM in the assay on CAKI-1 renal. The TGI worked out at 4.33 µM in the assay with SR leukemia; 22.6 µM in the assay with DU-145 prostate; 32.5 µM in the assay with NCI-H226 lung; 20.1 µM with ACHN renal; 20.9 µM in the assay with U251 CNS; 3.66 µM with M14 melanoma. Moreover, the TGI came out at 13.7 µM in the assay with RXF 393 renal, 19.4 µM in the assay on BT-549 breast, 15 µM in the assay on UACC-62 melanoma and 10.3 µM in the assay with CAKI-1 renal.

For `CCN(CC)Cc1cc(Nc2ccnc3ccc(OC)cc23)ccc1O`, the GI50 with SR leukemia was 2.85 µM; in the assay on DU-145 prostate, 3.93 µM; in the assay on NCI-H226 lung, 4.15 µM; in the assay with ACHN renal it was 2.82 µM; with U251 CNS, 4.46 µM; with M14 melanoma, 2.88 µM. Also, the GI50 is 2.79 µM in the assay on RXF 393 renal, 9.53 µM in the assay on BT-549 breast, 5.78 µM in the assay on UACC-62 melanoma and 1.48 µM in the assay on CAKI-1 renal. Also, the TGI with SR leukemia was found to be 7.77 µM; with DU-145 prostate, 16.8 µM; in the assay with NCI-H226 lung, 21.7 µM; in the assay on ACHN renal, 9.5 µM; in the assay on U251 CNS, 17.9 µM; with M14 melanoma, 10.1 µM. The TGI with RXF 393 renal stood at 10.9 µM; in the assay with BT-549 breast, 27.9 µM; in the assay on UACC-62 melanoma it was 20.9 µM; in the assay with CAKI-1 renal it was 4.1 µM.

For the compound `N=C1C(c2nc3ccccc3c(=O)[nH]2)=C(O)CN1c1cccc(Cl)c1`, the GI50 with SR leukemia was 0.302 µM; in the assay on DU-145 prostate it was 5.12 µM; with NCI-H226 lung, over 100 µM; in the assay with ACHN renal, 3.4 µM; in the assay with U251 CNS it was 2.22 µM; in the assay on M14 melanoma it was 5.26 µM. In addition, the GI50 in the assay on RXF 393 renal was 2.6 µM; with BT-549 breast it was 13.7 µM; in the assay on UACC-62 melanoma, 3.27 µM; with CAKI-1 renal, 3.11 µM. Moreover, the TGI in the assay on SR leukemia is 2.68 µM; with DU-145 prostate, over 57.9 µM; in the assay on NCI-H226 lung it was over 100 µM; in the assay with ACHN renal, over 100 µM; with U251 CNS it was over 50 µM; in the assay with M14 melanoma it was over 100 µM. Further, the TGI is over 27.3 µM in the assay with RXF 393 renal, over 100 µM with BT-549 breast, over 100 µM in the assay with UACC-62 melanoma and over 29.3 µM with CAKI-1 renal.

For the compound `N#CC(Cl)CS(=O)(=O)c1ccccc1` (centres undefined), the TGI came to 12.1 µM in the assay on SR leukemia; 32.4 µM in the assay on DU-145 prostate; 46.7 µM in the assay on NCI-H226 lung; 9.96 µM in the assay on ACHN renal; 44.7 µM in the assay on U251 CNS; 9.59 µM with M14 melanoma. The TGI in the assay on RXF 393 renal was determined as 6.31 µM; in the assay on BT-549 breast, 30.9 µM; in the assay on UACC-62 melanoma, 26.5 µM; in the assay on CAKI-1 renal, 10.2 µM.

For the compound `N#Cc1c(-c2ccccc2)nc(SCC(O)CN2CCOCC2)nc1N1CCOCC1` (centres undefined), the GI50 in the assay with SR leukemia was 32.2 µM; with DU-145 prostate, 24.5 µM; in the assay on NCI-H226 lung, 7.12 µM; in the assay with ACHN renal, 10.8 µM; with U251 CNS it was 24.4 µM; in the assay with M14 melanoma, 50 µM. In addition, the GI50 with RXF 393 renal is 5.55 µM; in the assay with BT-549 breast, 7.26 µM; in the assay on UACC-62 melanoma it was 3.55 µM; in the assay with CAKI-1 renal, 1.67 µM. Moreover, the TGI with SR leukemia, in the assay with DU-145 prostate, with NCI-H226 lung, in the assay with ACHN renal, with U251 CNS and in the assay with M14 melanoma was over 100 µM each time. The TGI with RXF 393 renal was 31.8 µM; in the assay with BT-549 breast, over 100 µM; with UACC-62 melanoma it was over 100 µM.

`CN1C(=O)[C@@H](CC2CCCC2)N(C2CCCC2)c2nc(Nc3cc(Cl)c(O)c(Cl)c3)ncc21`: the GI50 in the assay with SR leukemia is 13 µM; in the assay on DU-145 prostate, 27.6 µM; in the assay with NCI-H226 lung, 25 µM; with ACHN renal, 18.7 µM; in the assay with U251 CNS, 21.6 µM; in the assay on M14 melanoma it was 22.2 µM. The GI50 in the assay with RXF 393 renal was 13.5 µM; in the assay on BT-549 breast, 18.2 µM; in the assay on UACC-62 melanoma, 11.1 µM; with CAKI-1 renal, 23.1 µM. The TGI with SR leukemia is 62.1 µM; with DU-145 prostate it was over 100 µM; in the assay with NCI-H226 lung it was over 100 µM; in the assay on ACHN renal it was over 100 µM; with U251 CNS it was 86.9 µM; in the assay on M14 melanoma, over 100 µM. Besides, the TGI in the assay with RXF 393 renal was 52 µM; in the assay with BT-549 breast it was 53.2 µM; in the assay on UACC-62 melanoma, 27.4 µM; in the assay on CAKI-1 renal, over 100 µM.
